Patent US20020127182A1, “Paramagnetic metal ion-based macrocylic magnetization transfer contrast agents and method of use” (Board of Regents, The University of Texas System, priority 2000, published 2002)

Experiments:
Type in all cases: physicochemical
[1] = Effect of saturation duration on MT with Yb(9)^3+ (bulk water 1H NMR); details: 5 mM, pH 7.4, 25° C.; saturating pulse of about 2 s or longer centered between amide proton signals, bandwidth 1500 Hz
Description: An eleventh series of experiments was conducted to examine the effect of saturation duration on the magnitude of MT obtained using the Yb(9)^3+ complex. […] The upper series of spectra (a) were obtained while applying a saturating pulse of different duration and centered between the resonance signals of the exchangeable amide protons, with a saturating bandwidth of 1500 Hz. The saturating bandwidth was produced using conventional water elimination technique (i.e., a wet1d pulse sequence). See Varian User Manual; Varian NMR, Palo Alto, Calif.; User Guide, VNMR Version 6.1 software, 1997), incorporated herein by reference. The pulse sequence to produce saturation was modified to include hard loops to shape the pulse train (90° e-burp1, typically repeated from about 0 to about 500 times) with a bandwidth of 1500 Hz (pwwet=3.0 ms and wetpwr=28 db). The lower series (b) of spectra, shown inverted to facilitate comparison to series (a), were obtained while applying the same saturating pulse, but on the opposite side and equal distance away from the bulk water MR signal. As the illustrated in FIG. 26, for a saturating pulse of about 2 s or longer, about a 38% decrease in the bulk water signal was obtained for series (a).

[2] = pH dependence of amide proton (Ha, Hb) lifetimes τM^298 and Δω•τM of Yb(9)^3+
Description: As indicated by their linewidths, illustrated in FIG. 24, the two exchangeable amide sites have different dependences upon pH. As further illustrated in FIG. 25, Hb exchanges about 1.3 times faster than that of Ha. […] Similar to that discussed above for Ln(1)^3+, either too fast or too slow exchange may produce less MT. For the conditions used to obtain the data presented in Table 2, the maximum MT effect appear to be obtained for Ln(9)^3+ complexes when the exchange limiting regime is about 15.

[3] = 1H NMR spectra of Ln(9)^3+ complexes, exchangeable amide protons
Description: For certain Ln(9)^3+ complexes, for example, with Ln equal to Yb or Tm, the bound water molecules are ^1H NMR invisible probably due to the fast exchange between the bound water and the bulk water. […] Unfortunately, the NMR signal was invisible, probably due to its fast exchange with the bulk water. However, the eight exchangeable amide protons present as two resonance peaks with equivalent intensity, at −14.5 (Ha) and −17.7 (Hb) ppm, respectively, are visible.

Hb exchanges faster than Ha [2]: about 1.3 times | exchange limiting regimes Δω•τM of both amide protons ([2]; 7.05 T, broad range of pH values): > 1 | τM^298, Ha ([2]; pH 6.46): 5.00 ms | τM^298, Hb ([2]; pH 6.46): 4.00 ms | Δω•τM^298, Ha ([2]; pH 6.46, 7.05 T): 139.3 | Δω•τM^298, Hb ([2]; pH 6.46, 7.05 T): 133.7 | τM^298, Ha ([2]; pH 6.76): 2.30 ms | τM^298, Hb ([2]; pH 6.76): 1.78 ms | Δω•τM^298, Ha ([2]; pH 6.76, 7.05 T): 64.1 | Δω•τM^298, Hb ([2]; pH 6.76, 7.05 T): 59.5 | τM^298, Ha ([2]; pH 7.06): 1.21 ms | τM^298, Hb ([2]; pH 7.06): 0.82 ms | Δω•τM^298, Ha ([2]; pH 7.06, 7.05 T): 33.6 | Δω•τM^298, Hb ([2]; pH 7.06, 7.05 T): 27.2 | τM^298, Ha ([2]; pH 7.21): 0.92 ms | τM^298, Hb ([2]; pH 7.21): 0.72 ms | Δω•τM^298, Ha ([2]; pH 7.21, 7.05 T): 25.5 | Δω•τM^298, Hb ([2]; pH 7.21, 7.05 T): 24.2 | τM^298, Ha ([2]; pH 7.43): 0.64 ms | τM^298, Hb ([2]; pH 7.43): 0.52 ms | Δω•τM^298, Ha ([2]; pH 7.43, 7.05 T): 17.9 | Δω•τM^298, Hb ([2]; pH 7.43, 7.05 T): 17.4 | τM^298, Ha ([2]; pH 7.84): 0.57 ms | τM^298, Hb ([2]; pH 7.84): 0.44 ms | Δω•τM^298, Ha ([2]; pH 7.84, 7.05 T): 15.9 | Δω•τM^298, Hb ([2]; pH 7.84, 7.05 T): 14.7 | chemical shift of amide protons, first set (Ha) [3]: −14.5 ppm | chemical shift of amide protons, second set (Hb) [3]: −17.7 ppm
SMILES: NC(=O)CN1CCN(CC(N)=O)CCN(CC(N)=O)CCN(CC(N)=O)CC1.[Yb+3] [Yb(9)^3+]
decrease in the bulk water signal, series (a) [1]: ~38%
